Measurements published in US9833497B2, “Human originated EGF domain proteins and use of the same” (CHENGDU SOURCEBIO LIMITED-LIABILITY COMPANY, priority 2013, dated 2017).

Assays:
Type in all cases: cell-based
Citrobacter diversus = test: MIC against Gram-negative bacteria: Citrobacter diversus
Procedure, shortened: (§1)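 Growth inhibition by human EGF domain proteins was scored in LB liquid culture seeded at 5×10^5 CFU/mL. Protein was applied as a two-fold dilution series in triplicate, with shaking incubation at 37° C; MIC is the lowest concentration giving no growth.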

Proteus vulgaris = test: MIC against Gram-negative bacteria: Proteus vulgaris
Procedure, shortened: as §1

Pseudomonas aeruginosa = test: MIC against Gram-negative bacteria: Pseudomonas aeruginosa
Procedure, shortened: as §1

Serratia marcescens = test: MIC against Gram-negative bacteria: Serratia marcescens
Procedure, shortened: as §1

E. coli BL21 = test: MIC against Gram-negative bacteria: E. coli BL21
Procedure, shortened: as §1

Proteus mirabilis = test: MIC against Gram-negative bacteria: Proteus mirabilis
Procedure, shortened: as §1

Klebsiella pneumonia = test: MIC against Gram-negative bacteria: Klebsiella pneumonia
Procedure, shortened: as §1

Enterobacter cloacae = test: MIC against Gram-negative bacteria: Enterobacter cloacae
Procedure, shortened: as §1

E. coli DH5α = test: Antibacterial activity: MIC and growth curve against E. coli DH5α in 96-well plate; settings: minimal inhibitory concentration against E. coli DH5α; 96-well plate, 5×10^5 CFU/mL, 37° C., judged after 8 h
Procedure, shortened: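 MIC taken as lowest protein level with no bacterial growth, tracked by A600 every 30 min during 37 °C, 175 rpm culture. Two-fold protein series 50-12.5 μg/mL final, triplicate wells, against 5×10^5 CFU/mL of LB-washed mid-log cells.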

Moraxella catarrhalis = test: MIC against Gram-negative bacteria: Moraxella catarrhalis
Procedure, shortened: as §1

Aeromonas hydrophila = test: MIC against Gram-negative bacteria: Aeromonas hydrophila
Procedure, shortened: as §1

[1] = Citrobacter diversus, 96-well plate, 5×10^5 CFU/mL, 37° C., 10 h
[2] = Proteus vulgaris, 96-well plate, 5×10^5 CFU/mL, 37° C., 10 h
[3] = Pseudomonas aeruginosa, 96-well plate, 5×10^5 CFU/mL, 37° C., 10 h
[4] = Serratia marcescens, 96-well plate, 5×10^5 CFU/mL, 37° C., 10 h
[5] = E. coli BL21, 96-well plate, 5×10^5 CFU/mL, 37° C., 10 h
[6] = Proteus mirabilis, 96-well plate, 5×10^5 CFU/mL, 37° C., 10 h
[7] = Klebsiella pneumonia, 96-well plate, 5×10^5 CFU/mL, 37° C., 10 h
[8] = Enterobacter cloacae, 96-well plate, 5×10^5 CFU/mL, 37° C., 10 h
[9] = Moraxella catarrhalis, 96-well plate, 5×10^5 CFU/mL, 37° C., 10 h
[10] = Aeromonas hydrophila, 96-well plate, 5×10^5 CFU/mL, 37° C., 10 h
[11] = C. diversus, 10 h cultivation at 37° C., 5×10^5 CFU/mL
[12] = P. vulgaris, 10 h cultivation at 37° C., 5×10^5 CFU/mL
[13] = P. aeruginosa, 10 h cultivation at 37° C., 5×10^5 CFU/mL
[14] = S. marcescens, 10 h cultivation at 37° C., 5×10^5 CFU/mL
[15] = E. coli BL21, 10 h cultivation at 37° C., 5×10^5 CFU/mL
[16] = P. mirabilis, 10 h cultivation at 37° C., 5×10^5 CFU/mL
[17] = K. pneumonia, 10 h cultivation at 37° C., 5×10^5 CFU/mL
[18] = E. cloacae, 10 h cultivation at 37° C., 5×10^5 CFU/mL
[19] = M. catarrhalis, 10 h cultivation at 37° C., 5×10^5 CFU/mL
[20] = A. hydrophila, 10 h cultivation at 37° C., 5×10^5 CFU/mL
[21] = 96-well plate, 5×10^5 CFU/mL, 37° C., 10 h

PRT67 (EIDLCYSDPCGANGRCRSREGGYTCECFEDFTGEHCE; listed as Homo sapiens)
MIC (μg/mL) C. diversus (Citrobacter diversus; [1]): 12.5 µg/mL | MIC (μg/mL) P. vulgaris (Proteus vulgaris; [2]): 12.5 µg/mL | MIC (μg/mL) P. aeruginosa (Pseudomonas aeruginosa; [3]): 12.5 µg/mL | MIC (μg/mL) S. marcescens (Serratia marcescens; [4]): 50 µg/mL | MIC (μg/mL) E. coli BL21 (E. coli BL21; [5]): 50 µg/mL | MIC (μg/mL) P. mirabilis (Proteus mirabilis; [6]): 50 µg/mL | MIC (μg/mL) K. pneumonia (Klebsiella pneumonia; [7]): 25 µg/mL | MIC (μg/mL) E. cloacae (Enterobacter cloacae; [8]): 50 µg/mL | MIC (E. coli DH5α): 12.5 µg/mL | MIC (μg/mL) M. catarrhalis (Moraxella catarrhalis; [9]): 25 µg/mL | MIC (μg/mL) A. hydrophila (Aeromonas hydrophila; [10]): 25 µg/mL

PRT1015 (DVNECFQDPGPCPKGTSCHNTLGSFQCLCPVGQEGPRCE; listed as Homo sapiens)
MIC (Citrobacter diversus; C. diversus, 10 h cultivation at 37° C.): 50 µg/mL | MIC (Proteus vulgaris; P. vulgaris, 10 h cultivation at 37° C.): 12.5 µg/mL | MIC (Pseudomonas aeruginosa; P. aeruginosa, 10 h cultivation at 37° C.): 12.5 µg/mL | MIC (Serratia marcescens; S. marcescens, 10 h cultivation at 37° C.): 50 µg/mL | MIC (E. coli BL21; E. coli BL21, 10 h cultivation at 37° C.): 50 µg/mL | MIC (Proteus mirabilis; P. mirabilis, 10 h cultivation at 37° C.): 50 µg/mL | MIC (Klebsiella pneumonia; K. pneumonia, 10 h cultivation at 37° C.): 50 µg/mL | MIC (Enterobacter cloacae; E. cloacae, 10 h cultivation at 37° C.): 12.5 µg/mL | MIC (E. coli DH5α): 12.5 µg/mL | MIC (Moraxella catarrhalis; M. catarrhalis, 10 h cultivation at 37° C.): 12.5 µg/mL | MIC (Aeromonas hydrophila; A. hydrophila, 10 h cultivation at 37° C.): 25 µg/mL

PRT180 (DLDDCAGRACANGGTCVEGGGAHRCSCALGFGGRDCR; listed as Homo sapiens)
MIC (μg/mL) C. diversus (Citrobacter diversus; [11]): 12.5 µg/mL | MIC (μg/mL) P. vulgaris (Proteus vulgaris; [12]): 25 µg/mL | MIC (μg/mL) P. aeruginosa (Pseudomonas aeruginosa; [13]): 12.5 µg/mL | MIC (μg/mL) S. marcescens (Serratia marcescens; [14]): 12.5 µg/mL | MIC (μg/mL) E. coli BL21 (E. coli BL21; [15]): 12.5 µg/mL | MIC (μg/mL) P. mirabilis (Proteus mirabilis; [16]): 50 µg/mL | MIC (μg/mL) K. pneumonia (Klebsiella pneumonia; [17]): 12.5 µg/mL | MIC (μg/mL) E. cloacae (Enterobacter cloacae; [18]): 50 µg/mL | MIC (E. coli DH5α): 12.5 µg/mL | MIC (μg/mL) M. catarrhalis (Moraxella catarrhalis; [19]): 25 µg/mL | MIC (μg/mL) A. hydrophila (Aeromonas hydrophila; [20]): 25 µg/mL

PRT1212 (DIDECSGNPCLHGALCENTHGSYHCNCSHEYRGRHCE; listed as Homo sapiens)
MIC against C. diversus (Citrobacter diversus; [1]): 12.5 µg/mL | MIC against P. vulgaris (Proteus vulgaris; [2]): 25 µg/mL | MIC against P. aeruginosa (Pseudomonas aeruginosa; [3]): 12.5 µg/mL | MIC against S. marcescens (Serratia marcescens; [4]): 12.5 µg/mL | MIC against E. coli BL21 (E. coli BL21; [5]): 25 µg/mL | MIC against P. mirabilis (Proteus mirabilis; [6]): 50 µg/mL | MIC against K. pneumonia (Klebsiella pneumonia; [7]): 50 µg/mL | MIC against E. cloacae (Enterobacter cloacae; [8]): 25 µg/mL | MIC (E. coli DH5α): 50 µg/mL | MIC against M. catarrhalis (Moraxella catarrhalis; [9]): 25 µg/mL | MIC against A. hydrophila (Aeromonas hydrophila; [10]): 25 µg/mL

PRT179 (RVDRCSLQPCRNGGLCLDLGHALRCRCRAGFAGPRCE; listed as Homo sapiens)
MIC (μg/mL) C. diversus (Citrobacter diversus; [11]): 25 µg/mL | MIC (μg/mL) P. vulgaris (Proteus vulgaris; [12]): 12.5 µg/mL | MIC (μg/mL) P. aeruginosa (Pseudomonas aeruginosa; [13]): 12.5 µg/mL | MIC (μg/mL) S. marcescens (Serratia marcescens; [14]): 12.5 µg/mL | MIC (μg/mL) E. coli BL21 (E. coli BL21; [15]): 25 µg/mL | MIC (μg/mL) P. mirabilis (Proteus mirabilis; [16]): 25 µg/mL | MIC (μg/mL) K. pneumonia (Klebsiella pneumonia; [17]): 25 µg/mL | MIC (μg/mL) E. cloacae (Enterobacter cloacae; [18]): 50 µg/mL | MIC (E. coli DH5α): 50 µg/mL | MIC (μg/mL) M. catarrhalis (Moraxella catarrhalis; [19]): 12.5 µg/mL | MIC (μg/mL) A. hydrophila (Aeromonas hydrophila; [20]): 12.5 µg/mL

PRT719 (CNNPCEQFNGGCSHICAPGPNGAECQCPHEGNWYLANNRKHCI; listed as Homo sapiens)
MIC C. diversus (Citrobacter diversus; [21]): 50 µg/mL | MIC P. vulgaris (Proteus vulgaris; [21]): 50 µg/mL | MIC P. aeruginosa (Pseudomonas aeruginosa; [21]): 50 µg/mL | MIC S. marcescens (Serratia marcescens; [21]): 50 µg/mL | MIC E. coli BL21 (E. coli BL21; [21]): 12.5 µg/mL | MIC P. mirabilis (Proteus mirabilis; [21]): 50 µg/mL | MIC K. pneumonia (Klebsiella pneumonia; [21]): 12.5 µg/mL | MIC E. cloacae (Enterobacter cloacae; [21]): 50 µg/mL | MIC (E. coli DH5α): 50 µg/mL | MIC M. catarrhalis (Moraxella catarrhalis; [21]): 50 µg/mL | MIC A. hydrophila (Aeromonas hydrophila; [21]): 12.5 µg/mL

PRT1475 (DINECKDPSNINGGCSQICDNTPGSYHCSCKNGFVMLSNKKDCK; listed as Homo sapiens)
MIC against C. diversus (Citrobacter diversus; Citrobacter diversus, 5×10^5 CFU/mL, 10 h cultivation at 37° C.): 25 µg/mL | MIC against P. vulgaris (Proteus vulgaris; Proteus vulgaris, 5×10^5 CFU/mL, 10 h cultivation at 37° C.): 12.5 µg/mL | MIC against P. aeruginosa (Pseudomonas aeruginosa; Pseudomonas aeruginosa, 5×10^5 CFU/mL, 10 h cultivation at 37° C.): 12.5 µg/mL | MIC against S. marcescens (Serratia marcescens; Serratia marcescens, 5×10^5 CFU/mL, 10 h cultivation at 37° C.): 12.5 µg/mL | MIC against E. coli BL21 (E. coli BL21; E. coli BL21, 5×10^5 CFU/mL, 10 h cultivation at 37° C.): 12.5 µg/mL | MIC against P. mirabilis (Proteus mirabilis; Proteus mirabilis, 5×10^5 CFU/mL, 10 h cultivation at 37° C.): 25 µg/mL | MIC against K. pneumonia (Klebsiella pneumonia; Klebsiella pneumonia, 5×10^5 CFU/mL, 10 h cultivation at 37° C.): 12.5 µg/mL | MIC against E. cloacae (Enterobacter cloacae; Enterobacter cloacae, 5×10^5 CFU/mL, 10 h cultivation at 37° C.): 25 µg/mL | MIC (E. coli DH5α): 25 µg/mL | MIC against M. catarrhalis (Moraxella catarrhalis; Moraxella catarrhalis, 5×10^5 CFU/mL, 10 h cultivation at 37° C.): 12.5 µg/mL | MIC against A. hydrophila (Aeromonas hydrophila; Aeromonas hydrophila, 5×10^5 CFU/mL, 10 h cultivation at 37° C.): 12.5 µg/mL
